Here are results for one compound from PMC4150021 (Nature, 2014).

This experiment deals with PANC1 cells. The experiment in a line: Colony formation / growth, PANC1. It is filed as cell-based, human. As to conditions: data not shown.

In the case of `Nc1ncnc2nc(-c3ccc(N4CCOCC4)nc3)cc(-c3cccc(Br)c3)c12` [ABT-702], the “growth impairment of PANC1 cells” value is reported as “did not observe any growth impairment”.
